# Reference: patent publication US11555055B2, “Peptide inhibitors of insulin-degrading enzyme” (The Regents of the University of California, priority 2017, dated 2023)
# Where a SMILES comes first, the peptide text is derived from it. Bridges are numbered along the chain shown (N, C = ends).
# Tests used:
# 15 different proteases = assay: Selectivity of P12-3A against 15 other proteases (MMPs and peptidases of different classes); type: biochemical; conditions: P12-3A 100 μM
# Protocol: FIG. 8A-B. Selectivity of P12-3A for IDE vis-à-vis other proteases. Activity of P12-3A (100 μM) against (A) multiple matrix-metalloproteases (MMPs) and (B) multiple peptidases of different protease classes. […] Data are mean±SEM, n=8-16 per group. P<0.05 by 2-tailed Student's t-test. […] See Experimental Procedures for details. NEP, neprilysin; mCatD, murine cathepsin D; hCatD, human cathepsin D.
# Degradation Assays—IDE activity was quantified by monitoring the degradation of (7-methoxycoumarin-4-yl)acetic acid-[…](2,4-dinitrophenyl) (FRET1, 5 μM) (49,55), fluoresceinated and biotinylated amyloid β-protein (FAβB; 500 nM) or recombinant human insulin (50 nM) in PBS supplemented with 0.05% BSA. FRET1 degradation was measured by changes in fluorescence (λex=340 nm, λem=420 nm); FAβB degradation was monitored by fluorescence polarization (λex=488 nm, λem=525 nm), as described (56); and insulin degradation was quantified by ELISA. In vitro activity assays incorporated recombinant human IDE (1 nM) purified from bacteria (35). For quantitation of insulin degradation in primary murine skin fibroblasts, cells (1×10^5/well) were plated in 96-well plates and maintained in DMEM supplemented with 10% fetal bovine serum (FBS), 2 mM glutamine, penicillin and streptomycin. […]
# [1] = tested on: alpha-1 type I collagen (COL1A1) mRNA in primary murine skin fibroblasts; assay: COL1A1 mRNA quantification by RT-PCR; type: cell-based, mouse; conditions: P12-3A 100 μM, 4 d, confluent monolayers
# Protocol: (§1) FIG. 4A-F. Effects of P12-3A on cultured skin cells. A, Insulin concentrations as a function of time in logarithmically growing primary murine skin fibroblasts in the absence or presence of P12-3A (100 μM). […] Data are mean±SEM of 4 independent replications. *P<0.05, **P<0.01. B, Proliferation of cells in the absence or presence of P12-3A (100 μM). […] C,D,E, P12-3A (100 μM) potentiates insulin-induced collagen production in skin fibroblasts. Collagen production was assessed by COL1A1 mRNA levels (C), levels of hydroxyproline secreted into the medium (D), and cell-associated mature alpha-1 type I collagen levels detected by Western blotting (E). […] Migration of HaCaT cells 48 h after induction of a scratch wound in the presence of the indicated quantities of insulin and/or P12-3A (100 μM). […]
# (§2) Insulin promotes wound healing and overall skin health by affecting a number of processes, including cell proliferation (2,3), cell migration (5,6), and the production and secretion of ECM components, particularly type I collagen (7-13). We therefore assessed the ability of P12-3A to influence these processes in cultured skin fibroblasts and keratinocytes. To that end, primary mouse skin fibroblasts were grown for 4 d in multiple concentrations of insulin in the presence or absence of P12-3A, and insulin concentration over time was monitored by ELISA. […]
# [2] = tested on: primary murine skin fibroblasts; assay: Hydroxyproline secreted into the medium (collagen production and secretion); type: cell-based, mouse; conditions: P12-3A 100 μM
# Protocol: as §1, §2
smiles,measurement,setting,value
CC(C)C[C@H](NC(=O)[C@H](CO)NC(=O)[C@@H](N)CCC(N)=O)C(=O)N1CCC[C@H]1C(=O)N[C@@H](Cc1c[nH]c2ccccc12)C(=O)N[C@H]1CSSC[C@@H](C(=O)N[C@H](C(=O)N[C@H](C(N)=O)[C@@H](C)O)C(C)C)NC(=O)[C@H](Cc2c[nH]cn2)NC(=O)[C@@H]2CCCN2C(=O)[C@H](Cc2ccc(O)cc2)NC1=O [Peptide P12-3A] (H-QSLPWCYPHCVT-NH2; disulfide 6-10 (inferred)),inhibition of 15 different proteases,15 different proteases,essentially no inhibition
same,COL1A1 mRNA levels,[1],~2.6 times the levels of untreated cells
same,hydroxyproline levels secreted into the medium,[2],~4.6 times that secreted by untreated cells
